The series in a line: Solubility of additives in diesel at 4°C (visual phase separation). As to conditions: for limit of addition to diesel by solubility: conclusion from Example 2. In kind it is physicochemical. As for the experimental part:
Tests for solubility in diesel at 4°C were performed with the effluent of the etherification of solketal with isobutylene. Table 1: Composition of the additive STBE
Three additives were prepared each with a different STBE/SLK ratio (1/3, 1/1 and 3/1 w/w) from […] this effluent. In turn, these additives were added to the same diesel fuel in increasing proportions (2, 10, 20, 30 and 50 % wt.).
Table 5: Results for STBE solubility in diesel at 4°C

Bounds are passed on as bounds.

`CC1(C)OCC(CO)O1` (stereo not shown) [SLK, 2,2-dimethyl-4-hydroxymethyl-1,3-dioxolane, reference compound]: the “limit of addition to diesel by solubility” value is at most 0.5 % by weight. Further, the “solubility in diesel at 4°C” value (0.5 % wt. additive in diesel) is “S”. Moreover, the “state of additive in diesel (Fig 1)” value (2% in diesel, photograph) is on record as “phase separation”.

Turning to `CCC(C)(C)OCC1COC(C)(C)O1` (stereo not shown) [STAE-97, solketal-ter-amyl-ether], the “limit of addition to diesel by solubility” value is listed as “not limited by its solubility with diesel”. Besides, the “solubility in diesel at 4°C” value (60 % wt. additive in diesel) was “S”. The “solubility in diesel at 4°C” value (75 % wt. additive in diesel) was “S”. Besides, the “solubility in diesel at 4°C” value (80 % wt. additive in diesel) is on record as “S”.

The record behind these values is EP3515899B1, “SOLKETAL-ETHERS, PRODUCTION METHOD AND USES THEREOF” (Cepsa S.A.U., priority 2016, dated 2018).
